The values that follow come from ChEMBL document CHEMBL5042558, “Selective Macrocyclic Inhibitors of DYRK1A/B” (ACS Med Chem Lett, 2022).

In data set [1] the target is Serine/threonine-protein kinase Sgk1 (Homo sapiens, UniProt O00141). Description: Inhibition of SGK (unknown origin) at 1 uM by kinome scan method.
Data set [2] concerns CAL-27. Briefly: Induction of apoptosis in human CAL-27 cells assessed as increase in cleaved-PARP level at 1 uM after 24 hrs by Immunoblot analysis relative to control. The class given is functional. (Immunoblotting shows a protein as a band on a membrane.)
Data set [3] has as its system CAL-27. Description: Induction of apoptosis in human CAL-27 cells assessed as increase in cleaved-PARP level at 10 uM after 24 hrs by Immunoblot analysis relative to control. The format is functional.
The target in data set [4] is Dual specificity mitogen-activated protein kinase kinase 4 (Homo sapiens, UniProt P45985). Description: Inhibition of MEK4 (unknown origin) at 1 uM by kinome scan method.
Data set [5] addresses Mitogen-activated protein kinase kinase kinase 19 (Homo sapiens, UniProt Q56UN5). Briefly: Inhibition of YSK4 (unknown origin) at 1 uM by kinome scan method.
The target in data set [6] is Ribosomal protein S6 kinase alpha-6 (Homo sapiens, UniProt Q9UK32). Briefly: Inhibition of RSK4 (unknown origin) at 1 uM by kinome scan method.
Data set [7] addresses T1, Focal adhesion kinase 1 (Homo sapiens, UniProt Q05397). Briefly: Inhibition of FAK (unknown origin) at 1 uM by kinome scan method.
Data set [8] concerns the target T2, Ribosomal protein S6 kinase alpha-3 (Homo sapiens, UniProt P51812). Description: Inhibition of RSK2 (unknown origin) at 1 uM by kinome scan method.
Data set [9] addresses Misshapen-like kinase 1 (Homo sapiens, UniProt Q8N4C8). Briefly: Inhibition of MINK1 (unknown origin) at 1 uM by kinome scan method.
The target in data set [10] is Mitogen-activated protein kinase 8 (Homo sapiens, UniProt P45983). Briefly: Inhibition of JNK1 (unknown origin) in human CAL-27 cells measured after 6 hrs by select screen kinase assay. The class given is cell-based.
In data set [11] the target is Mitogen-activated protein kinase 9 (Homo sapiens, UniProt P45984). Description: Inhibition of JNK2 (unknown origin) in human CAL-27 cells measured after 6 hrs by select screen kinase assay. The format is cell-based.
Data set [12] addresses Mitogen-activated protein kinase 10 (Homo sapiens, UniProt P53779). Description: Inhibition of JNK3 (unknown origin) in human CAL-27 cells measured after 6 hrs by select screen kinase assay. The format is cell-based.
The target of data set [13] is T1, Focal adhesion kinase 1. Description: Inhibition of FAK (unknown origin) in human CAL-27 cells measured after 6 hrs by select screen kinase assay. The format is cell-based.
Data set [14] addresses Ribosomal protein S6 kinase alpha-1 (Homo sapiens, UniProt Q15418). Description: Inhibition of RSK1 (unknown origin) in human CAL-27 cells measured after 6 hrs by select screen kinase assay. The format is cell-based.
Data set [15] deals with T2, Ribosomal protein S6 kinase alpha-3. Description: Inhibition of RSK2 (unknown origin) in human CAL-27 cells measured after 6 hrs by select screen kinase assay. The class given is cell-based.
The target of data set [16] is Ribosomal protein S6 kinase alpha-2 (Homo sapiens, UniProt Q15349). Description: Inhibition of RSK3 (unknown origin) in human CAL-27 cells measured after 6 hrs by select screen kinase assay. The format is cell-based.
Data set [17] concerns CAL-27. Briefly: Antiproliferative activity against human CAL-27 cells assessed as reduction in cell viability at 10 uM measured after 72 hrs by Celltiter-Glo luminescent assay. The class given is functional.
Data set [18] relates to FaDu. Description: Antiproliferative activity against human FaDu cells assessed as reduction in cell viability at 10 uM measured after 72 hrs by Celltiter-Glo luminescent assay. The format is functional. (Cellular ATP, detected with luciferase, serves as a proxy for viable cell number.)
Data set [19] concerns HEK-293T. Description: Antiproliferative activity against human HEK293T cells assessed as reduction in cell viability at 10 uM measured after 72 hrs by Celltiter-Glo luminescent assay. The format is toxicity, cell-based.
For data set [20], the system named is CAL-27. Description: Induction of apoptosis in human CAL-27 cells assessed as PARP level at 1 uM after 24 hrs by Immunoblot analysis relative to control. The format is functional.
Data set [21] deals with CAL-27. Briefly: Induction of apoptosis in human CAL-27 cells assessed as PARP level at 10 uM after 24 hrs by Immunoblot analysis relative to control. The class given is functional.
For data set [22], the system named is CAL-27. Description: Induction of apoptosis in human CAL-27 cells assessed as BCL-xL level at 1 uM after 24 hrs by Immunoblot analysis relative to control. The class given is functional.
Data set [23] has as its system CAL-27. Description: Induction of apoptosis in human CAL-27 cells assessed as BCL-xL level at 10 uM after 24 hrs by Immunoblot analysis relative to control. The format is functional.
The subject of data set [24] is CAL-27. Briefly: Induction of apoptosis in human CAL-27 cells assessed as decrease in AKT phosphorylation at S473 residue at 0.5 uM after 24 hrs by Immunoblot analysis relative to control. The class given is functional. The arrangement: scale not given: the % may be the effect or the level left.
The test system of data set [25] is CAL-27. Description: Induction of apoptosis in human CAL-27 cells assessed as decrease in AKT phosphorylation at S473 residue at 1 uM after 24 hrs by Immunoblot analysis relative to control. The format is functional. Also on record: scale not given: the % may be the effect or the level left.
Data set [26] concerns CAL-27. Briefly: Induction of apoptosis in human CAL-27 cells assessed as decrease in AKT phosphorylation at S473 residue at 5 uM after 24 hrs by Immunoblot analysis relative to control. The class given is functional. The arrangement: scale not given: the % may be the effect or the level left.
Data set [27] concerns CAL-27. Description: Induction of apoptosis in human CAL-27 cells assessed as decrease in AKT phosphorylation at S473 residue at 10 uM after 24 hrs by Immunoblot analysis relative to control. The class given is functional. The arrangement: scale not given: the % may be the effect or the level left.
The subject of data set [28] is CAL-27. Briefly: Induction of apoptosis in human CAL-27 cells assessed as decrease in FOXO3A phosphorylation at serine 253 residue at 0.5 uM after 24 hrs by Immunoblot analysis relative to control. The arrangement: scale not given: the % may be the effect or the level left. The format is functional.
Data set [29] deals with CAL-27. Briefly: Induction of apoptosis in human CAL-27 cells assessed as decrease in FOXO3A phosphorylation at serine 253 residue at 1 uM after 24 hrs by Immunoblot analysis relative to control. The class given is functional. Also on record: scale not given: the % may be the effect or the level left.
The subject of data set [30] is CAL-27. Description: Induction of apoptosis in human CAL-27 cells assessed as decrease in FOXO3A phosphorylation at serine 253 residue at 5 uM after 24 hrs by Immunoblot analysis relative to control. The format is functional. Also on record: scale not given: the % may be the effect or the level left.
In data set [31] the test system is CAL-27. Description: Induction of apoptosis in human CAL-27 cells assessed as decrease in FOXO3A phosphorylation at serine 253 residue at 10 uM after 24 hrs by Immunoblot analysis relative to control. The class given is functional. Also on record: scale not given: the % may be the effect or the level left.
A short description of data set [32]: Half life in C57BL/6 mouse at 10 mg/kg, po measured upto 8 hrs by LC-MS/MS analysis. The format is ADME, organism-based. Particulars: in vivo.
The nature of data set [33]: Half life in C57BL/6 mouse at 2 mg/kg, iv measured upto 8 hrs by LC-MS/MS analysis. The format is ADME, organism-based. The note with it: in vivo.
Data set [34] can be described thus: AUC (0-infinity) in C57BL/6 mouse at 10 mg/kg, po measured upto 8 hrs by LC-MS/MS analysis. Particulars: C57BL/6, mouse, in vivo. The arrangement: route oral, dose 10 mg/kg, time <=8. The class given is ADME, organism-based.
Data set [35] in a line: AUC (0-infinity) in C57BL/6 mouse at 2 mg/kg, iv measured upto 8 hrs by LC-MS/MS analysis. The class given is ADME, organism-based. Also on record: route intravenous, dose 2 mg/kg, time <=8. Particulars: in vivo.
Data set [36] is described as follows: Clearance in C57BL/6 mouse at 10 mg/kg, po measured upto 8 hrs by LC-MS/MS analysis. The class given is ADME, organism-based. Particulars: in vivo.
The nature of data set [37]: Clearance in C57BL/6 mouse at 2 mg/kg, iv measured upto 8 hrs by LC-MS/MS analysis. The class given is ADME, organism-based. Particulars: in vivo.
The nature of data set [38]: Cmax in C57BL/6 mouse at 10 mg/kg, po measured upto 8 hrs by LC-MS/MS analysis. The class given is ADME, organism-based. Also on record: route oral, dose 10 mg/kg, time <=8. The note with it: in vivo.
Data set [39] is described as follows: Cmax in C57BL/6 mouse at 2 mg/kg, iv measured upto 8 hrs by LC-MS/MS analysis. The class given is ADME, organism-based. The arrangement: route intravenous, dose 2 mg/kg, time <=8. Particulars: in vivo.
The nature of data set [40]: Oral bioavailability in C57BL/6 mouse at 10 mg/kg measured upto 8 hrs by LC-MS/MS analysis. The class given is ADME, organism-based. Particulars: C57BL/6, mouse, in vivo.
In data set [41] the target is T3, Dual specificity tyrosine-phosphorylation-regulated kinase 1B (Homo sapiens, UniProt Q9Y463). Description: Inhibition of DYRK1B (unknown origin) measured after 6 hrs in presence of ATP by Z'-LYTE assay.
Data set [42] deals with T3, Dual specificity tyrosine-phosphorylation-regulated kinase 1B. Description: Inhibition of DYRK1B (unknown origin) at 1 uM by kinomescan method.

T1 sequence (Q05397 whole entry): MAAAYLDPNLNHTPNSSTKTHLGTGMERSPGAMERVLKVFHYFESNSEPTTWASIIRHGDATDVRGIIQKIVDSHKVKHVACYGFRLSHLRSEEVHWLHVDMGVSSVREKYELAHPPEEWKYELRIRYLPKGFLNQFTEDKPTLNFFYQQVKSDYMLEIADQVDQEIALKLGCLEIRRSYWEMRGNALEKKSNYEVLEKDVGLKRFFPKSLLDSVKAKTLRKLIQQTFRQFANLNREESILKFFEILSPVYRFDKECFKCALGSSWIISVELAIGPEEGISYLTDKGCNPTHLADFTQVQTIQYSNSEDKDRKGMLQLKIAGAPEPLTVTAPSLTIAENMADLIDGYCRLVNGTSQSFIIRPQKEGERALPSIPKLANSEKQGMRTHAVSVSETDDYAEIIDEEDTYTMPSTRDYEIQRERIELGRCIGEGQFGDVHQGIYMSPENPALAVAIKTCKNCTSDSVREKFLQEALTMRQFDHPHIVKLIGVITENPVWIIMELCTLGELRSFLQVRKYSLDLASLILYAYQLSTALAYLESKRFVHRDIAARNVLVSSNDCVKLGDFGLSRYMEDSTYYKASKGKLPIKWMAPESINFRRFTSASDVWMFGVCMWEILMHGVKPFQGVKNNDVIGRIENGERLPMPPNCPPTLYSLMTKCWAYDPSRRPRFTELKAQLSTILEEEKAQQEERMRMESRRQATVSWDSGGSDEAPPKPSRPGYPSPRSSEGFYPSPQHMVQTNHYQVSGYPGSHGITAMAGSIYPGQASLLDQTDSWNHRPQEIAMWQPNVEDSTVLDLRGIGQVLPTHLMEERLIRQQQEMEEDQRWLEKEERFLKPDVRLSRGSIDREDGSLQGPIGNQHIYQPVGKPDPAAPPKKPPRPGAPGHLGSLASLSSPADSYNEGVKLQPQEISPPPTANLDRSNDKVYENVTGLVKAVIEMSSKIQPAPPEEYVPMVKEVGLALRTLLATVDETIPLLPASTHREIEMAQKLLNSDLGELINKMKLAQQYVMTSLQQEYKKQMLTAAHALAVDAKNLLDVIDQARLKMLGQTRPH
T3 sequence (Q9Y463 whole entry): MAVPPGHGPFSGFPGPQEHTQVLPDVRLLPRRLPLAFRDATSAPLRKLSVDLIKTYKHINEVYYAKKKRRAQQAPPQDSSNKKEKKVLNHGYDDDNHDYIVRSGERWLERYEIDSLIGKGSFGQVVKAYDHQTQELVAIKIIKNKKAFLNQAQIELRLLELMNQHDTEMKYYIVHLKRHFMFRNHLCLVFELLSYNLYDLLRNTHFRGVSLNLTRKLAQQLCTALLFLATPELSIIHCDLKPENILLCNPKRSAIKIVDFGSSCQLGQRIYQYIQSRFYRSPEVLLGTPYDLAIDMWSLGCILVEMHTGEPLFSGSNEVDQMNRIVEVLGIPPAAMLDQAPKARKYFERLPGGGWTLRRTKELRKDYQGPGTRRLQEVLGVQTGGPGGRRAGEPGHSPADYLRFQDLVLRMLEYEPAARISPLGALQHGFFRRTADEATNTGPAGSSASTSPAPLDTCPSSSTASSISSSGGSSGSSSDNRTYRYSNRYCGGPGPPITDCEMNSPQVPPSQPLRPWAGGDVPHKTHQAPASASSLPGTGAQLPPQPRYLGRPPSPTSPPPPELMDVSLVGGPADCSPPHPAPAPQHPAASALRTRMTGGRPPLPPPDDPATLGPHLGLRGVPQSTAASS
T2 sequence (P51812 whole entry): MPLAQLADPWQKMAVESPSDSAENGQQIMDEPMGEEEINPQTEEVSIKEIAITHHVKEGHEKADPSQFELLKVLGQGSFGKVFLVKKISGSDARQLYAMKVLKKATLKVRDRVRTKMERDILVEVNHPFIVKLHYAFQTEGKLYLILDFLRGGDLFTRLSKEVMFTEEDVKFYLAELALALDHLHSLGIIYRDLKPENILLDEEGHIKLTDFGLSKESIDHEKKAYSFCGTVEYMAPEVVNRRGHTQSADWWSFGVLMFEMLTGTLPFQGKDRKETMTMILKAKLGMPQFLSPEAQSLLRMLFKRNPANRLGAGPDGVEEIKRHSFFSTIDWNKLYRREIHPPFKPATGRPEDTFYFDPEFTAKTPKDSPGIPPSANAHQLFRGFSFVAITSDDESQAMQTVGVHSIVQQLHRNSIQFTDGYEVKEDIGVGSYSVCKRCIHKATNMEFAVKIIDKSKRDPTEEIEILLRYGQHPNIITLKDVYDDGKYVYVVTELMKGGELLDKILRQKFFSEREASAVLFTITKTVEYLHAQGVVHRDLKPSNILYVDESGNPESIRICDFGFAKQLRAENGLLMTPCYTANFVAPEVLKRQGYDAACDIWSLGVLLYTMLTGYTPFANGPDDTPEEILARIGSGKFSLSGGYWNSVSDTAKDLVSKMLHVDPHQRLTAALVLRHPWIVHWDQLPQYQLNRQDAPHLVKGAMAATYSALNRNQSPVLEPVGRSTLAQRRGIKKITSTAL
Sequence of Mitogen-activated protein kinase 9 (P45984 whole entry): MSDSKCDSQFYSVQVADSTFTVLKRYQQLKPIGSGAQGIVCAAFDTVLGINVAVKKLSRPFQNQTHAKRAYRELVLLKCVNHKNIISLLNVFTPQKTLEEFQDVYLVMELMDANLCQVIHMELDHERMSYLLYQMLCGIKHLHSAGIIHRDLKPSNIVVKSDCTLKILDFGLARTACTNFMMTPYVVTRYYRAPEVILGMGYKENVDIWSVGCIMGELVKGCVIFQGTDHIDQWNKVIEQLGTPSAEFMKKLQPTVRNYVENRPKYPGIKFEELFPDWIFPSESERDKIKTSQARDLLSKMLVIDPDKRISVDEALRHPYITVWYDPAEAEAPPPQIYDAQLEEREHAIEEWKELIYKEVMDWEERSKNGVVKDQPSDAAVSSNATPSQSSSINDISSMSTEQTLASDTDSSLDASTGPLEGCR
Sequence of Dual specificity mitogen-activated protein kinase kinase 4 (P45985 whole entry): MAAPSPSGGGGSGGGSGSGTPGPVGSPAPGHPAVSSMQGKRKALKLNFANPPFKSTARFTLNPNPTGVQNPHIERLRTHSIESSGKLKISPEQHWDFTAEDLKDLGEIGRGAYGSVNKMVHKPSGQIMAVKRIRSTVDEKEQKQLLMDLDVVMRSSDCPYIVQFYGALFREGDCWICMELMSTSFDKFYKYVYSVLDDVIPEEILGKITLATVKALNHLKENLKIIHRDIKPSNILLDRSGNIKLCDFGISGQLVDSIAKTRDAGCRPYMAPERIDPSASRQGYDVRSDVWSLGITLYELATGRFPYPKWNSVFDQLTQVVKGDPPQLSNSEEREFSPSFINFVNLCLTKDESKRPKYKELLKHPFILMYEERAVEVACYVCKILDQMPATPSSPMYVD
Sequence of Mitogen-activated protein kinase 8 (P45983 whole entry): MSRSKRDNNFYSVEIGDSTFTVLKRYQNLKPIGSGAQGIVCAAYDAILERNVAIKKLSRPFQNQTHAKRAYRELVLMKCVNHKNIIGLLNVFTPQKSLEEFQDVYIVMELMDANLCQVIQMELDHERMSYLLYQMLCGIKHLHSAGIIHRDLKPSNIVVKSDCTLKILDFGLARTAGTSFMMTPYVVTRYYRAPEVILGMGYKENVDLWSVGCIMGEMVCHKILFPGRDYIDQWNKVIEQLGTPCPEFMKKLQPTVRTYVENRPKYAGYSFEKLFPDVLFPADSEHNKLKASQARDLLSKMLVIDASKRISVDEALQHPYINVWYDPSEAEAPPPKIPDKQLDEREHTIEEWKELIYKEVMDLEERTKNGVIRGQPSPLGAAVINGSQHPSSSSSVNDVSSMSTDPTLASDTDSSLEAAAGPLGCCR
Sequence of Ribosomal protein S6 kinase alpha-1 (Q15418 whole entry): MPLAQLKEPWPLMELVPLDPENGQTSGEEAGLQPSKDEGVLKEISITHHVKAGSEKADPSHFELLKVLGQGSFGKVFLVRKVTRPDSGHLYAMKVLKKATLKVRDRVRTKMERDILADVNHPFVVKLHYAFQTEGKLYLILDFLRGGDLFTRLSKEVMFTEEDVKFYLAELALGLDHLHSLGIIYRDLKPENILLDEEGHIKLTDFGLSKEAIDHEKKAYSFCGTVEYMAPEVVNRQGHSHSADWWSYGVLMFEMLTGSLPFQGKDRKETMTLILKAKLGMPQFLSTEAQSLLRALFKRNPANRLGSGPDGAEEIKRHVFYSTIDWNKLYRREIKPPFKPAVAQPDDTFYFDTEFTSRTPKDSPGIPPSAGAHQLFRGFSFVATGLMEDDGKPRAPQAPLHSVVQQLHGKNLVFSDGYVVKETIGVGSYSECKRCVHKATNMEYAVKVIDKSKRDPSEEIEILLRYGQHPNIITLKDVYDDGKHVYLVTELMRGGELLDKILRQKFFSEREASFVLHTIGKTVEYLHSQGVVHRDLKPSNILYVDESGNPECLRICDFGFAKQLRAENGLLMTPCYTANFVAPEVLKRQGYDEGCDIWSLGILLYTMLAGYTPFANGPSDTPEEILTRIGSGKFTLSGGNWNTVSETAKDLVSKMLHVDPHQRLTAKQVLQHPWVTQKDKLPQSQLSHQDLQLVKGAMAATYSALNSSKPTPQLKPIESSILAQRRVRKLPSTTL
Sequence of Mitogen-activated protein kinase 10 (P53779 whole entry): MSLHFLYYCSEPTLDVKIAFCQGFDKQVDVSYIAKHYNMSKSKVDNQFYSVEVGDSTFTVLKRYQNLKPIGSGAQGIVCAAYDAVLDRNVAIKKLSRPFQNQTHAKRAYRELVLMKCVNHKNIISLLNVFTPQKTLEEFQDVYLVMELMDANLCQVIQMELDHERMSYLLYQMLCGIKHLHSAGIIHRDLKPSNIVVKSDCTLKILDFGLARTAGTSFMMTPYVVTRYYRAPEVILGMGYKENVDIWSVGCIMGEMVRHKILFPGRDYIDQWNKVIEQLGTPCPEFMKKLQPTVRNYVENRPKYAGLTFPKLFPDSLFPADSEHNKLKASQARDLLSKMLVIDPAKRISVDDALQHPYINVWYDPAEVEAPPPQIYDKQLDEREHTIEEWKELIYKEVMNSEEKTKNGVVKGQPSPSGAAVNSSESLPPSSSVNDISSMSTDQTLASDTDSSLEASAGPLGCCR

Consider `CN1Cc2nn(C)c(C#N)c2-c2cnc3[nH]c(F)c(c3c2)-c2cn(nc2C(F)(F)F)CCCC1=O`, for which the concentration for half-maximal inhibition (IC50) in data set [1] was found to be 690 nM; in [4], 132 nM; in data set [5] it was 1620 nM; in data set [6], 37 nM; in data set [7], 210 nM; in data set [8], 182 nM. The IC50 was 115 nM in data set [9]; 1130 nM in [10]; 1100 nM in data set [11]; more than 10000 nM in data set [12]; 90 nM in data set [13]; 82 nM in data set [14]. In addition, the IC50 in data set [15] worked out at 80 nM; in data set [16] it was 61 nM. Also, the Activity is given as 128% in [2]; 540% in [3]; 45% in [17]; 40% in data set [18]; “Non-Toxic” in data set [19]; 104% in data set [20]. In addition, the Activity is 93% in data set [21]; 61% in data set [22]; 58% in data set [23]; 81% in data set [24]; 85% in data set [25]; 74% in [26]. Also, the Activity is 63% in data set [27]; 56% in [28]; 49% in data set [29]; 10% in data set [30]; 38% in data set [31]. In addition, the half-life is 2.4 h in data set [32] and 1.2 h in data set [33]. Also, the AUC(0-inf) in [34] turned out to be 5770 ng·h/mL; in data set [35], 8950 ng·h/mL. The CL/F in data set [36] turned out to be 29.3 mL/min/kg. Moreover, the clearance in [37] was 5.9 mL/min/kg. Besides, the Cmax in data set [38] stood at 6.4 µM; in data set [39] it was 34.1 µM. The molecule also showed a bioavailability in data set [40] of 12.3%.
As to `CN1Cc2nn(C)cc2-c2cnc3[nH]cc(c3c2)-c2cnn(c2)CCCC1=O`, the 50% inhibitory concentration (IC50) in data set [41] was 70 nM; in data set [42] it was 19 nM.

Usually IC50 stands for the concentration at which inhibition is half-maximal. By half-life is commonly meant how long it takes for the measured level to halve. Usually AUC(0-inf) stands for total exposure, with the tail of the curve extrapolated. The term CL/F denotes the apparent clearance, not corrected for the fraction that reaches the circulation. The clearance is the rate of elimination divided by the concentration. What is called Cmax is the highest concentration seen after dosing. What is called bioavailability is the share of a dose that reaches the circulation, judged against a reference dose that is usually intravenous.
